Reference: US10668039B2, “Methods for treatment of adenoid cystic carcinoma” (THE CHILDREN'S MEDICAL CENTER CORPORATION, priority 2016, dated 2020)
“Also recorded” adds a separate entry of the source.

Tests used:
ACCx6 = assay: ACC xenotransplantation trial, ACCx6; assay type: in vivo, nude mice; settings: oral 0.2 mL flat dose: ATRA 4 mg/mL, isotretinoin 30 mg/mL, fenretinide 40 mg/mL
Experimental: (§1) Xenograft experiments: To generate ACC xenografts, 1×10^6 viable ACC cells were injected into the flank of female nude (Foxn1nu) mice for in vivo drug testing of ACCx6, ACCx9, and ACCx11 lines. Once tumors were visible, the mice were randomized to receive vehicle control or drug until reaching a […] tumor volume of 1,000 mm3. The mice in each group were treated with an oral flat dose five times weekly (po qdx5) for four cycles (two days off between cycles). The exact dosing was determined based on an initial MTD tolerability study and published literature reports. Five mice per group were treated for ACCx6 and ACCx9, and four mice per group were treated for ACCx11 (five mice in the control ACCx11 group), and the tumor volumes were quantified. Mice were treated with a flat dose of 0.2 mL orally of: 30 mg/mL isotretinoin; 40 mg/mL fenretinide; 4 mg/mL ATRA for ACCx6 and ACCx11 or 3 mg/mL ATRA for ACCx9. Mouse procedures used in this study were approved by the IACUC at South Texas Accelerated Research Therapeutics (San Antonio, Tex.).
(§2) Primagraft experiments: For in vivo drug testing, ACC tumor fragments from host animals were implanted subcutaneously into the flank of nude mice (CRL: ATH/NU). Once tumors reached 125-250 mm3, mice were randomized to receive vehicle or drug diluted in 10:90 DMSO:10% hydroxypropyl-beta-cyclodextrin orally until controls reached a tumor volume endpoint of 1-2 cm3 (4-9 mice per group: x5M1 and x6, 4 treated vs. 9 vehicle controls; x9, 4 treated vs. 5 vehicle controls; x11, 5 treated vs. 8 vehicle controls). Mice were treated with ATRA (ACC x6 and x11: 4 mg/mL, 0.2 mL flat dose; ACC×9: 3 mg/mL, 0.2 mL flat dose) or isotretinoin (30 mg/mL, 0.2 mL flat dose). Tumor growth was monitored and mice weighed twice weekly and studies ended when final group reached tumor volume endpoint. No statistical methods were employed to determine the sample size, and no blinding of investigators was performed. […]

ACCx9 = assay: ACC xenotransplantation trial, ACCx9; assay type: in vivo, nude mice; settings: oral 0.2 mL flat dose: ATRA 3 mg/mL, isotretinoin 30 mg/mL, fenretinide 40 mg/mL
Experimental: as §1, §2

ACCx11 = assay: ACC xenotransplantation trial, ACCx11; assay type: in vivo, nude mice; settings: for tumor growth inhibition ACCx11: oral 0.2 mL flat dose: ATRA 4 mg/mL, isotretinoin 30 mg/mL, fenretinide 40 mg/mL
Experimental: as §1
(§3) Primagraft experiments: For in vivo drug testing, ACC tumor fragments from host animals were implanted subcutaneously into the flank of nude mice (CRL: ATH/NU). Once tumors reached 125-250 mm3, mice were randomized to receive vehicle or drug diluted in 10:90 DMSO:10% hydroxypropyl-beta-cyclodextrin orally until controls reached a tumor volume endpoint of 1-2 cm3 (4-9 mice per group: x5M1 and x6, 4 treated vs. 9 vehicle controls; x9, 4 treated vs. 5 vehicle controls; x11, 5 treated vs. 8 vehicle controls). Mice were treated with ATRA (ACC x6 and x11: 4 mg/mL, 0.2 mL flat dose; ACC×9: 3 mg/mL, 0.2 mL flat dose) or isotretinoin (30 mg/mL, 0.2 mL flat dose). Tumor growth was monitored and mice weighed twice weekly and studies ended when final group reached tumor volume endpoint. No statistical methods were employed to determine the sample size, and no blinding of investigators was performed. After long-term tumor growth inhibition studies were completed, the ATRA treated mice stopped receiving treatment and were maintained longer as indicated to monitor tumor maintenance after treatment cessation. For long-term tumor growth inhibition studies, ACC x6, x9, and x11 models were used and primagrafts collected at the completion of the study. Short-term kinetics studies were also undertaken with ACC x9 and x5M1 primagrafts involving 3 day ATRA treatments. All animal procedures used in this study were approved by the IACUC at START, San Antonio, Tex.

[1] = tested on: ACC patient derived xenografts; assay: ACC xenotransplantation trials, average across ACCx6, ACCx9 and ACCx11; assay type: in vivo, nude mice; set-up: concentration or dose not given beside the values; settings: average of ACCx6, ACCx9, ACCx11
Experimental: as §1, §3

[2] = tested on: mpeg1:mCherry positive cells; assay: Confocal imaging of CHT, mpeg1:mCherry positive cells; assay type: in vivo, zebrafish; settings: 10 μM, treated 48-72 hpf, imaged at 72 hpf
Experimental: Confocal imaging: Double transgenic c-myb:GFP; lyz:dsRed or c-myb:GFP; mpeg1:mCherry embryos from the same clutch were treated between 48-72 hpf (n=4 biological replicates per treatment group) with 10 μM ATRA diluted in E3. Live 72 hpf embryos were embedded in 0.8% low-melting point agarose containing 0.04 mg/mL Tricaine and imaged on a Nikon Eclipe Ti microscope with 20× Plan-Apo DIC N.A. 0.75. CHT cells were counted in Z-stack image projections processed on Imaris software (Bitplane).

c-myb = assay: In situ hybridization of whole embryos, c-myb; assay type: in vivo, zebrafish; settings: 10 μM, treated 48-72 hpf, fixed at 72 hpf
Experimental: In situ hybridization: In situ hybridization was done for c-myb as described in North (2007). Wildtype AB zebrafish embryos were treated with RAs in the E3 water at the indicated doses during 48-72 hpf, after which point they were fixed in 4% PFA. Qualitative scoring (number of embryos with altered number of HSCs scored) of c-myb positive cells was conducted by assessing the caudal hematopoietic tissue (CHT) region by the tail.
(§4) In situ hybridization: Wildtype AB embryos from the same clutch were treated between 48-72 hpf with 10 μM retinoic acid agonists diluted in E3, fixed at 72 hpf in 4% paraformaldehyde, and processed as previously described. CHT staining in the embryos was blindly scored as high, medium, or low, and summed across 3 independent experiments as done previously. Representative images were acquired on a Nikon ZMS 18 microscope.

1-plastin = assay: In situ hybridization of whole embryos, 1-plastin; assay type: in vivo, zebrafish; settings: 10 μM, treated 48-72 hpf, fixed at 72 hpf
Experimental: as §4

MYB = assay: Western blot of ACC primagrafts, MYB; assay type: in vivo, human; settings: long-term ACC x11 and short-term (3 days) ACC x5M1 primagrafts
Text: as §2
(§5) Western blots: ACC x11 (from long-term tumor growth inhibition studies) and ACC x5M1 (from short-term kinetics studies) primagrafts were mechanically homogenized in RIPA lysis buffer (Thermo Scientific) supplemented by addition of complete protease inhibitor cocktail (Roche). Protein concentrations were determined by DC protein assay (BioRad).

RARα = assay: Western blot of ACC primagrafts, RARα; assay type: in vivo, human; settings: long-term ACC x11 and short-term (3 days) ACC x5M1 primagrafts
Text: as §2, §5

[3] = patients, 45 mg/m2 oral dose of ATRA, first day of treatment; cited from earlier work
[4] = tested on: human salivary adenoid cystic carcinoma cell; settings: Chen et al. 1998; cell line said not to be bona fide ACC; cited from earlier work

Compound	tumor growth inhibition ACCx6 (ACCx6)	tumor growth inhibition ACCx9 (ACCx9)	tumor growth inhibition after discontinuation of treatment, ACC x11 (ACCx11; after approximately 28 days of treatment)	tumor growth inhibition ACCx11 (ACCx11)	Average tumor growth inhibition across the three models [1]	Average tumor growth inhibition across the three models ([1]; listed as all-trans retinoic acid (ATRA))	mpeg1:mCherry+ cells in the CHT [2]	c-myb expression (staining) in the CHT (c-myb)	1-plastin expression (staining) in the CHT (1-plastin)	MYB protein expression (wildtype and fusion) (MYB)	RARα protein expression (RARα)	median plasma concentration [3]	effect on cell proliferation in vitro [4]	Average tumor growth inhibition across the three models ([1]; listed as fenretinide)	Average tumor growth inhibition across the three models ([1]; listed as isotretinoin)
CC(C=CC1=C(C)CCCC1(C)C)=CC=C/C(C)=C/C(=O)O [ATRA, (E)-3,7-dimethyl-9-(2,6,6-trimethyl-1-cyclo-hexen-1-yl)-2,4,6,8-nonatetraenoic acid]	81%	78%	sustained	105%	88%	88%	no significant difference; also recorded: no significant effect	significant decrease; also recorded: decreased staining	no significant difference; also recorded: did not decrease staining	decreases	increased	approximately 1 μM	anti-proliferative effects	–	–
CC1=C(/C=C/C(C)=C/C=C/C(C)=C/C(=O)Nc2ccc(O)cc2)C(C)(C)CCC1 [Fenretinide, retinoic acid p-hydroxyanilide]	60%	57%	–	41%	53%	–	–	–	–	–	–	–	–	53%	–
CC1=C(/C=C/C(C)=C/C=C/C(C)=C\C(=O)O)C(C)(C)CCC1 [Isotretinoin, 13-cis-retinoic acid]	69%	95%	–	94%	86%	–	–	–	–	–	–	–	–	–	86%
